Data as given in US11952374B2, “Bicyclic compounds” (Aligos Therapeutics, Inc., priority 2020, dated 2024).
Read-outs that look alike come from different tables or passages of the source.

What was measured:
HBV = experiment: HBV-DNA antiviral assay using HepG2.117 cells (intracellular HBV DNA by qPCR); assay type: cell-based, HBV genotype D
Experimental: (§1) The following assay procedure describes the HBV antiviral assay, using HepG2.117 cells, which carry a stably integrated genotype D HBV genome under the control of a Tet-off promoter, and intracellular HBV DNA quantification as endpoint. Cell viability is assessed in parallel by measuring the intracellular ATP content using CellTiter-Glo 2.0 (Promega).
On day 0, HepG2.117 cells (which are maintained in routine cell culture with doxycycline present in the medium at a final concentration of 1 μg/mL) are seeded in 96-well plates (white with clear bottom) at a density of 2.0×10^4 cells/well (0.1 mL/well) in medium without doxycycline to induce pgRNA transcription and subsequent formation of HBV particles. The cells are incubated at 37° C. and 5% CO2.
(§2) On day 1, medium is removed from each well, the test articles are diluted in culture medium without doxcycyline and 100 μL was added to cell culture wells (9 concentrations, 4-fold dilution). For each plate, 6 untreated (merely DMSO) wells are included. The final concentration of DMSO in the culture medium is 2%. Each plate is prepared in duplicate (one for HBV DNA extraction, one for CellTiter-Glo 2.0 measurement). The cells are incubated at 37° C. and 5% CO2 for 3 days.
(§3) On day 4, cell viability is assessed using CellTiter-Glo 2.0 and cell lysates are prepared for HBV DNA extraction and subsequent quantification by qPCR.
Medium is removed from each well and 100 μL of 0.33% NP-40 in H2O was added to each well. Plates are sealed, incubated at 4° C. for 5 mins, vortexed extensively and centrifuged briefly. Next, 35 μL of lysate is added to 65 μL QuickExtract DNA Extraction Solution (Epicentre) in a PCR plate for each well. PCR plate is incubated at 65° C. for 6 mins, 98° C. for 2 mins and finally cooled to 4° C. HBV DNA is then quantified by qPCR with HBV-specific primers and probes as specified in Table 2 using the Bio-Rad SSOAdvanced Universal Probes Supermix on a CFX96 machine (Bio-Rad). The PCR cycle program consisted of 95° C. for 3 mins, followed by 40 cycles at 95° C. for 10 sec and 60° C. for 30 sec.
A DNA standard is prepared by dilution of an IDT gBlock corresponding to the amplicon with concentrations ranging from 10^A2 to 10^A8 copies/input (i.e. per 4 μL) and used to generate a standard curve by plotting Cq values vs. HBV DNA standard concentration. The quantity of HBV DNA in each sample is determined by interpolating from the standard curve.
(§4) Cell viability is calculated as follows: % Cell viability=(luminescence value of test sample)/(average luminescence value of 2% DMSO control)×100%. HBV DNA inhibition was calculated as follows: 100−(HBV DNA copy number of test sample)/(average HBV DNA copy number of 2% DMSO control)×100%. No normalization to entecavir is required due to the excellent dynamic window of this assay. The CC50, EC50 and EC90 values were determined by dose-response curves fitted using non-linear regression.

[1] = Cell viability by CellTiter-Glo 2.0 (intracellular ATP) in HepG2.117 cells; assay type: cell-based; conditions: human, CellTiter-Glo 2.0, 3 days incubation
Experimental: as §1, §2, §3
(§5) Using the other plates, the cell viability is quantified by CellTiter-Glo 2.0 according to the manufacturer's manual. In brief, 100 μL of reagent solution is added to the culture plates and shaken for 2′. The plates are incubated at room temperature for 10 min and luminescence signal is subsequently measured on a VarioSkan Lux (ThermoFisher) plate reader.
as §4

HepG2.117 cells = experiment: as above; assay type: cell-based; conditions: CellTiter-Glo 2.0, 3 days incubation
Experimental: as §1, §2, §3, §5, §4

[2] = Hepatitis B virus, 72 h, HBV DNA inhibition, HepG2.117 cells, 3 days incubation, read-out: EC50
[3] = Hepatitis B virus, HepG2.117, 72 h
[4] = HBV DNA inhibition, HepG2.117 cells, 3 days incubation, read-out: EC50

| Compound | EC50 (HBV; [2]) [nM] | CC50 at 3 days [1] [µM] | EC50 (HBV; [3]) [nM] | EC50 (HBV; [4]) [nM] | CC50 (HepG2.117 cells) [µM] |
| --- | --- | --- | --- | --- | --- |
| CCN1CCC(c2nc3c(c(=O)n2-c2ccc(C(=O)NC)cc2)CC(C)N(C(=O)c2ccc(Br)c(C(F)(F)F)c2)C3)C1 (stereo not drawn) [Compound 18, 4-(7-(4-bromo-3-(trifluoromethyl)benzoyl)-2-(1-ethylpyrrolidin-3-yl)-6-methyl-4-oxo-5,6,7,8-tetrahydropyrido[3,4-d]pyrimidin-3(4H)-yl)-N-methylbenzamide] | > 5000 | > 50 |  |  |  |
| CNC(=O)c1ccc(-n2c(-n3ccc(C)n3)nc3c(c2=O)C[C@@H](C)N(C(=O)c2ccc(Br)c(C(F)(F)F)c2)C3)cc1 [Compound 19] | < 50 | > 50 |  |  |  |
| CNC(=O)c1ccc(-n2c([C@@H]3CCCN3C(C)C)nc3c(c2=O)CC(C)N(C(=O)c2ccc(Br)c(C(F)(F)F)c2)C3)cc1 (single isomer, unassigned) [Compound 11a] | 500 to 5000 | > 50 |  |  |  |
| CNC(=O)c1ccc(-n2c(N(Cc3ccccc3)C3CN(C)C3)nc3c(c2=O)C[C@@H](C)N(C(=O)c2ccc(Br)c(C(F)(F)F)c2)C3)cc1 [Compound 13, (R)-4-(2-(benzyl(1-methylazetidin-3-yl)amino)-7-(4-bromo-3-(trifluoromethyl)benzoyl)-6-methyl-4-oxo-5,6,7,8-tetrahydropyrido[3,4-d]pyrimidin-3(4H)-yl)-N-methylbenzamide] | 500 to 5000 | 27 |  |  |  |
| COc1ccc(-n2c(-c3ccccc3)nc3c(c2=O)CCN(C(=O)c2ccc(Br)c(C(F)(F)F)c2)C3)cc1 [Compound 7, 7-(4-bromo-3-(trifluoromethyl)benzoyl)-3-(4-methoxyphenyl)-2-phenyl-5,6,7,8-tetrahydropyrido[3,4-d]pyrimidin-4(3H)-one] |  | > 0.5 | 500 to 5000 |  |  |
| CNC(=O)c1ccc(-n2c(-n3cc(C4CC4)cn3)nc3c(c2=O)C[C@@H](C)N(C(=O)c2ccc(Br)c(C(F)(F)F)c2)C3)cc1 [Compound 9, (R)-4-(7-(4-bromo-3-(trifluoromethyl)benzoyl)-2-(4-cyclopropyl-1H-pyrazol-1-yl)-6-methyl-4-oxo-5,6,7,8-tetrahydropyrido[3,4-d]pyrimidin-3(4H)-yl)-N-methylbenzamide] | 50 to 500 | 27.8 |  |  |  |
| CNC(=O)c1ccc(-n2c(-n3cccn3)nc3c(c2=O)C[C@@H](C)N(C(=O)c2ccc(Br)c(C(F)(F)F)c2)C3)cc1 [Compound 6, (R)-4-(7-(4-bromo-3-(trifluoromethyl)benzoyl)-6-methyl-4-oxo-2-(1H-pyrazol-1-yl)-5,6,7,8-tetrahydropyrido[3,4-d]pyrimidin-3(4H)-yl)-N-methylbenzamide] | < 50 | > 50 |  |  |  |
| CNC(=O)c1ccc(-n2c(NCc3ccccc3-c3ccccn3)nc3c(c2=O)C[C@@H](C)N(C(=O)c2ccc(Br)c(C(F)(F)F)c2)C3)c(Cl)c1 (single isomer, unassigned) [Compound 1b] |  |  |  | < 50 | > 50 |
| CNC(=O)c1ccc(-n2c(NCc3ccccc3-c3ccccn3)nc3c(c2=O)C[C@@H](C)N(C(=O)c2ccc(Br)c(C(F)(F)F)c2)C3)c(Cl)c1 (single isomer, unassigned) [Compound 1a] | < 50 | > 50 |  |  |  |
| CCc1ccn(-c2nc3c(c(=O)n2-c2ccc(C(=O)NC)cc2)C[C@@H](C)N(C(=O)c2ccc(Br)c(C(F)(F)F)c2)C3)n1 [Compound 15] | < 50 | > 50 |  |  |  |
| CNC(=O)c1ccc(-n2c([C@@H]3CCCN3C(C)C)nc3c(c2=O)CC(C)N(C(=O)c2ccc(Br)c(C(F)(F)F)c2)C3)cc1 (single isomer, unassigned) [Compound 11b] |  |  |  | 500 to 5000 | > 50 |
| CNC(=O)c1ccc(-n2c(-n3cc(CC(C)C)cn3)nc3c(c2=O)C[C@@H](C)N(C(=O)c2ccc(Br)c(C(F)(F)F)c2)C3)cc1 [Compound 16] | 50 to 500 | > 50 |  |  |  |
| CNC(=O)c1ccc(-n2c(N(Cc3ccccc3)C3CCC3)nc3c(c2=O)C[C@@H](C)N(C(=O)c2ccc(Br)c(C(F)(F)F)c2)C3)cc1 [Compound 5, (R)-4-(2-(benzyl(cyclobutyl)amino)-7-(4-bromo-3-(trifluoromethyl)benzoyl)-6-methyl-4-oxo-5,6,7,8-tetrahydropyrido[3,4-d]pyrimidin-3(4H)-yl)-N-methylbenzamide] |  | > 0.5 | < 50 |  |  |
| CNC(=O)c1ccc(-n2c(C3CCN(C(=O)OC(C)(C)C)C3)nc3c(c2=O)CC(C)N(C(=O)c2ccc(Br)c(C(F)(F)F)c2)C3)cc1 (stereo not drawn) [Compound 17, t-butyl 3-(7-(4-bromo-3-(trifluoromethyl)benzoyl)-6-methyl-3-(4-(methylcarbamoyl)phenyl)-4-oxo-3,4,5,6,7,8-hexahydropyrido[3,4-d]pyrimidin-2-yl)pyrrolidine-1-carboxylate] | 50 to 500 | 24.2 |  |  |  |
| CNC(=O)c1ccc(-n2c(N(Cc3ccccc3)C3CC(F)(F)C3)nc3c(c2=O)C[C@@H](C)N(C(=O)c2ccc(Br)c(C(F)(F)F)c2)C3)cc1 [Compound 3, (R)-4-(2-(benzyl(3,3-difluorocyclobutyl)amino)-7-(4-bromo-3-(trifluoromethyl)benzoyl)-6-methyl-4-oxo-5,6,7,8-tetrahydropyrido[3,4-d]pyrimidin-3(4H)-yl)-N-methylbenzamide] | < 50 | > 50 |  |  |  |
| CNC(=O)c1ccc(-n2c(-n3ccc(CC(C)C)n3)nc3c(c2=O)C[C@@H](C)N(C(=O)c2ccc(Br)c(C(F)(F)F)c2)C3)cc1 [Compound 14] | < 50 | > 50 |  |  |  |
| CNC(=O)c1ccc(-n2c(-n3ccc(C4CC4)n3)nc3c(c2=O)C[C@@H](C)N(C(=O)c2ccc(Br)c(C(F)(F)F)c2)C3)cc1 [Compound 10, (R)-4-(7-(4-bromo-3-(trifluoromethyl)benzoyl)-2-(3-cyclopropyl-1H-pyrazol-1-yl)-6-methyl-4-oxo-5,6,7,8-tetrahydropyrido[3,4-d]pyrimidin-3(4H)-yl)-N-methylbenzamide] | < 50 | > 50 |  |  |  |
| CNC(=O)c1ccc(-n2c(-n3ccc(C(C)C)n3)nc3c(c2=O)C[C@@H](C)N(C(=O)c2ccc(Br)c(C(F)(F)F)c2)C3)cc1 [Compound 2, (R)-4-(7-(4-bromo-3-(trifluoromethyl)benzoyl)-2-(3-isopropyl-1H-pyrazol-1-yl)-6-methyl-4-oxo-5,6,7,8-tetrahydropyrido[3,4-d]pyrimidin-3(4H)-yl)-N-methylbenzamide] | < 50 | > 50 |  |  |  |
| CNC(=O)c1ccc(-n2c(N(Cc3ccccc3)CC3CC3)nc3c(c2=O)C[C@@H](C)N(C(=O)c2ccc(Br)c(C(F)(F)F)c2)C3)cc1 [Compound 4, (R)-4-(2-(benzyl(cyclopropylmethyl)amino)-7-(4-bromo-3-(trifluoromethyl)benzoyl)-6-methyl-4-oxo-5,6,7,8-tetrahydropyrido[3,4-d]pyrimidin-3(4H)-yl)-N-methylbenzamide] | < 50 | > 50 |  |  |  |
| CNC(=O)c1ccc(-n2c(N(CC3CC3)c3ccccc3)nc3c(c2=O)C[C@@H](C)N(C(=O)c2ccc(Br)c(C(F)(F)F)c2)C3)cc1 [Compound 12, (R)-4-(7-(4-bromo-3-(trifluoromethyl)benzoyl)-2-((cyclopropylmethyl)(phenyl)amino)-6-methyl-4-oxo-5,6,7,8-tetrahydropyrido[3,4-d]pyrimidin-3(4H)-yl)-N-methylbenzamide] | < 50 | 10.8 |  |  |  |
| CNC(=O)c1ccc(-n2c(-c3cccc(C(C)C)n3)nc3c(c2=O)C[C@@H](C)N(C(=O)c2ccc(Br)c(C(F)(F)F)c2)C3)cc1 [Compound 8, (R)-4-(7-(4-bromo-3-(trifluoromethyl)benzoyl)-2-(6-isopropylpyridin-2-yl)-6-methyl-4-oxo-5,6,7,8-tetrahydropyrido[3,4-d]pyrimidin-3(4H)-yl)-N-methylbenzamide] | < 50 | 30 |  |  |  |
